Reference: ChEMBL document CHEMBL4680293, “Tubulin inhibitory activity of a novel colchicine-binding compounds based on a dinaphthospiropyranran scaffold” (Bioorg Med Chem, 2021)
The source made the active and inactive calls. The calls are words filed in the database; no cut-off is given here.

Legend:
DU-145 = assay: Anti-cancer activity against human DU-145 cells assessed as cell growth inhibition measured after 48 hrs by SRB method; type: functional, cell-based
MCF7 = assay: Anti-cancer activity against human MCF-7 cells assessed as cell growth inhibition measured after 48 hrs by SRB method; type: functional, cell-based
[1] = Anti-cancer activity against human prostate cancer cells assessed as cell growth inhibition measured after 48 hrs by SRB method; type: functional; conditions: Prostate tumor cell line
SW-620 = assay: Anti-cancer activity against human SW-620 cells assessed as cell growth inhibition measured after 48 hrs by SRB method; type: functional, cell-based
SK-MEL-28 = assay: Anti-cancer activity against human SK-MEL-28 cells assessed as cell growth inhibition measured after 48 hrs by SRB method; type: functional, cell-based
MOLT-4 = assay: Anti-cancer activity against human MOLT-4 cells assessed as cell growth inhibition measured after 48 hrs by SRB method; type: functional, cell-based
SN12C = assay: Anti-cancer activity against human SN12C cells assessed as cell growth inhibition measured after 48 hrs by SRB method; type: functional, cell-based
KM12 = assay: Anti-cancer activity against human KM12 cells assessed as cell growth inhibition measured after 48 hrs by SRB method; type: functional, cell-based
Leukemia cell = assay: Anti-cancer activity against human leukemia cells assessed as cell growth inhibition measured after 48 hrs by SRB method; type: functional
Malme-3M = assay: Anti-cancer activity against human Malme-3M cells assessed as cell growth inhibition measured after 48 hrs by SRB method; type: functional, cell-based
SK-MEL-5 = assay: Anti-cancer activity against human SK-MEL-5 cells assessed as cell growth inhibition measured after 48 hrs by SRB method; type: functional, cell-based
HCT-116 = assay: Anti-cancer activity against human HCT-116 cells assessed as cell growth inhibition measured after 48 hrs by SRB method; type: functional, cell-based
TK-10 = assay: Anti-cancer activity against human TK-10 cells assessed as cell growth inhibition measured after 48 hrs by SRB method; type: functional, cell-based
[2] = Anti-cancer activity against human melanoma cells assessed as cell growth inhibition measured after 48 hrs by SRB method; type: functional; conditions: Melanoma cell line
HOP-92 = assay: Anti-cancer activity against human HOP-92 cells assessed as cell growth inhibition measured after 48 hrs by SRB method; type: functional, cell-based
UACC-62 = assay: Anti-cancer activity against human UACC-62 cells assessed as cell growth inhibition measured after 48 hrs by SRB method; type: functional, cell-based
Tubulin (Homo sapiens) = Tubulin (Homo sapiens) (UniProt P68371+Q9H4B7+P0DPH7+P68366+Q13509+Q71U36+P04350+Q3ZCM7+P07437+P68363+Q9BQE3+Q6PEY2+Q13885+Q9BVA1+Q9BUF5); assay: Inhibition of tubulin (unknown origin) assessed as inhibition of tubulin polymerization at 10 uM measured for 50 mins by fluorescence based analysis; type: protein-complex assay
HOP-62 = assay: Anti-cancer activity against human HOP-62 cells assessed as cell growth inhibition measured after 48 hrs by SRB method; type: functional, cell-based
SR = assay: Anti-cancer activity against human SR cells assessed as cell growth inhibition measured after 48 hrs by SRB method; type: functional, cell-based
SF-539 = assay: Anti-cancer activity against human SF-539 cells assessed as cell growth inhibition measured after 48 hrs by SRB method; type: functional, cell-based
SNB-75 = assay: Anti-cancer activity against human SNB-75 cells assessed as cell growth inhibition measured after 48 hrs by SRB method; type: functional, cell-based
PC-3 = assay: Anti-cancer activity against human PC-3 cells assessed as cell growth inhibition measured after 48 hrs by SRB method; type: functional, cell-based
[3] = Anti-cancer activity against human central nervous system cells assessed as cell growth inhibition measured after 48 hrs by SRB method; type: functional; conditions: CNS cell
IGROV-1 = assay: Anti-cancer activity against human IGROV1 cells assessed as cell growth inhibition measured after 48 hrs by SRB method; type: functional, cell-based
RXF 393 = assay: Anti-cancer activity against human RXF 393 cells assessed as cell growth inhibition measured after 48 hrs by SRB method; type: functional, cell-based
LOX IMVI = assay: Anti-cancer activity against human LOX IMVI cells assessed as cell growth inhibition measured after 48 hrs by SRB method; type: functional, cell-based
OVCAR-8 = assay: Anti-cancer activity against human OVCAR-8 cells assessed as cell growth inhibition measured after 48 hrs by SRB method; type: functional, cell-based

## C1=C2CNCC3=Cc4c(ccc5ccccc45)OC23Oc2ccc3ccccc3c21
DU-145; DU-145, 48 h
  IC50: 4.68 µM
DU-145; DU-145, time 48 hrs
  GI50: 3.31 µM
  TGI: 11.2 µM
DU-145; DU-145, time 48 hrs, read-out: LC50 (the source's name)
  CC50: 4.41 µM
MCF7; MCF7, 48 h
  IC50: 3.98 µM
MCF7; MCF7, time 48 hrs
  GI50: 2.82 µM
  TGI: 12.6 µM
MCF7; MCF7, time 48 hrs, read-out: LC50 (the source's name)
  CC50: 4.26 µM
[1]
  GI50: 3.39 µM
SW-620; SW-620, 48 h
  IC50: 3.09 µM
SW-620; SW-620, time 48 hrs
  GI50: 2.51 µM
  TGI: 10.5 µM
SW-620; SW-620, time 48 hrs, read-out: LC50 (the source's name)
  CC50: 4.28 µM
SK-MEL-28
  TGI: inactive
SK-MEL-28; SK-MEL-28, 48 h
  IC50: 10 µM
SK-MEL-28; SK-MEL-28, time 48 hrs
  GI50: 7.41 µM
MOLT-4; MOLT-4, 48 h
  IC50: 5.13 µM
MOLT-4; MOLT-4, time 48 hrs
  GI50: 2.88 µM
  LC50: 4 µM
  TGI: 10.5 µM
SN12C; 48 h
  IC50: 7.59 µM
SN12C; time 48 hrs
  GI50: 4.27 µM
  TGI: 20 µM
SN12C; time 48 hrs, read-out: LC50 (the source's name)
  CC50: 4.08 µM
KM12; KM12, 48 h
  IC50: 5.75 µM
KM12; KM12, time 48 hrs
  GI50: 3.8 µM
  LC50: 4.25 µM
  TGI: 16.2 µM
Leukemia cell
  GI50: 3.16 µM
Malme-3M; 48 h
  IC50: 36.3 µM
Malme-3M; time 48 hrs
  GI50: 12.6 µM
  LC50 (50% lethal concentration): 4 µM
  TGI: 38 µM
SK-MEL-5; SK-MEL-5, 48 h
  IC50: 6.03 µM
SK-MEL-5; SK-MEL-5, time 48 hrs
  GI50: 3.16 µM
  TGI: 13.8 µM
SK-MEL-5; SK-MEL-5, time 48 hrs, read-out: LC50 (the source's name)
  CC50: 4.33 µM
HCT-116; HCT-116, 48 h
  IC50: 3.72 µM
HCT-116; HCT-116, time 48 hrs
  GI50: 3.02 µM
  LC50: 4 µM
  TGI: 13.2 µM
TK-10; TK-10, 48 h
  IC50: 26.9 µM
TK-10; TK-10, time 48 hrs
  GI50: 9.12 µM
  TGI: 27.5 µM
[2]
  GI50: 4.47 µM
HOP-92; HOP-92, 48 h
  IC50: 26.9 µM
HOP-92; HOP-92, time 48 hrs
  GI50: 2.88 µM
  TGI: 17 µM
UACC-62; UACC-62, 48 h
  IC50: 12.9 µM
UACC-62; UACC-62, time 48 hrs
  GI50: 5.01 µM
  LC50 (50% lethal concentration): 4.16 µM
  TGI: 21.9 µM
Tubulin (Homo sapiens)
  inhibition: Active
HOP-62; HOP-62, 48 h
  IC50: 12.3 µM
HOP-62; HOP-62, time 48 hrs
  GI50: 4.47 µM
  TGI: 16.6 µM
SR; 48 h
  IC50: 3.8 µM
SR; time 48 hrs
  GI50: 2.19 µM
  LC50: 4 µM
  TGI: 5.37 µM
SF-539; SF-539, 48 h
  IC50: 6.03 µM
SF-539; SF-539, time 48 hrs
  GI50: 3.39 µM
  LC50 (concentration killing 50% of cells): 4 µM
  TGI: 14.8 µM
SNB-75; SNB-75, 48 h
  IC50: 11.2 µM
SNB-75; SNB-75, time 48 hrs
  GI50: 2.34 µM
  LC50: 4.18 µM
  TGI: 11.5 µM
PC-3; PC-3, 48 h
  IC50: 10 µM
PC-3; PC-3, time 48 hrs
  GI50: 3.47 µM
  LC50: 4.16 µM
  TGI: 18.2 µM
[3]
  GI50: 3.8 µM
IGROV-1; IGROV-1, 48 h
  IC50: 20.9 µM
IGROV-1; IGROV-1, time 48 hrs
  GI50: 9.55 µM
  LC50 (concentration killing 50% of cells): 4.08 µM
  TGI: 28.8 µM
RXF 393; RXF 393, 48 h
  IC50: 5.01 µM
RXF 393; RXF 393, time 48 hrs
  GI50: 1.78 µM
  TGI: 6.17 µM
RXF 393; RXF 393, time 48 hrs, read-out: LC50 (the source's name)
  CC50: 4.32 µM
LOX IMVI; 48 h
  IC50: 3.39 µM
LOX IMVI; time 48 hrs
  GI50: 2.45 µM
  LC50 (50% lethal concentration): 4 µM
  TGI: 7.41 µM
OVCAR-8; OVCAR-8, 48 h
  IC50: 4.79 µM
OVCAR-8; OVCAR-8, time 48 hrs
  GI50: 3.02 µM
  TGI: 14.8 µM
OVCAR-8; OVCAR-8, time 48 hrs, read-out: LC50 (the source's name)
  CC50: 4 µM
